Measured values reported in patent EP0442962B1, “LIPOSOMAL RADIOLOGIC CONTRAST AGENTS” (UNGER, Evan C, priority 1988, dated 1990).

What was measured:
[1] = test system: Male buffalo rats; assay: In vivo MR contrast enhancement (signal intensity pre and post contrast), Example 3; conditions: for Liver + Muscle (ratio of liver enhancement to muscle enhancement) / Liver enhancement / Muscle enhancement (paraspinal muscle): scans 30 min after I.V. injection
Experimental: All in vivo imaging was performed on a Siemens 1.5 Tesla magnet (Iselin, N.J.). Spin echo technique was utilized for both T1- and T2-weighted imaging. T1-weighted sequences utilized parameters TR/TE: 400 msec/16 msec, 4 acquisitions, 256 x 256 matrix 16 cm field view for 2 mm thick slices. For T1 calculations, images were acquired using a fixed TE of 28 msec with TR varying from 300, 500, 1500 and 3500 msec. For T2 calculations a fixed TR of 3500 msec was used with TE values of 28, 45, 70, 90 and 150 msec. T1 and T2 calculations were preformed using the software on the Magnetom System (Iselin, N.J.) by selecting a region of interest on the CRT monitor.
Male buffalo rats, weighing approximately 450 grams, were scanned using a 7.5 cm circular surface coil. The animals were scanned in the supine position, and signal intensities of liver, paraspinal muscle, kidney, renal pelvis, bladder and vascular structures were measured pre and post contrast. Rats were imaged pre and post contrast injection of either 0.4 µ Gd-DTPA liposomes (8 rats) or free Gd-DTPA (2 rats).
Injections of the 0.4 µ liposomes prepared in Example 1 were performed by tail vein injection using a 26 gauge butterfly needle. Gd-DTPA liposomes were injected over a period of approximately two minutes; liposomes were diluted with an equal volume of normal saline immediately prior to injection.

[2] = In vitro relaxivity from phantom imaging at 1.5 Tesla, Example 4; assay type: physicochemical; conditions: phantoms in PBS, T1
Experimental: Phantoms were prepared by diluting the vesicle preparation with Dulbecco's phosphate buffered saline (PBS) (Gibco), so as to obtain several samples for each vesicle preparation with an effective concentration of Gd-DTPA in the range 0.2-2 mmoles. Approximately 10 ml of each dilution was placed in 20 ml plastic syringes (Becton Dickinson), which were sealed with parafilm to prevent leakage and placed in a custom-built acrylic phantom holder which positioned the syringes with their long-axes horizontal within the bore of the magnet.
Phantoms were imaged using a Siemens 1.5 Tesla Magnetom whole body scanner (Iselin, N.J.) using body coil. For T1 calculations, images were acquired using spin-echo sequences with a fixed TE of 17 msec and TR values of 100, 300, 450, 600, 900, 1200, 1800, 2500 and 3500 msec. Other parameters were 4 acquisitions, 256 x 256 matrix, 30 cm field of view and 10 mm slices.

[3] = test system: Male Wistar rats; assay: In vivo MR contrast enhancement of microemulsified liposomes at 0.5 Tesla, Example 9; conditions: control, dose of 0.1 mmoles/kg; Figure 5
Experimental: All in vivo imaging was performed on a Toshiba MR-50A 0.5 Tesla whole body scanner. Scan parameters were TR = 400 msec TE = 15 msec, 5 mm slice, 1 mm interslice gap, 15 cm field of view with 4 acquisitions using a receive-only surface coil.
Male Wistar rats were scanned in the supine position, and signal intensities of liver, kidney and paraspinal muscle as well as urine, were measured pre and post contrast, with post contrast intervals comprising 15 minutes, 1 hour, 4 hours, 24 hours and 48 hours.
Injections of liposomes prepared as described above were made at concentrations of 0.1, 0.05 and 0.025 mM/kg, based on the weight of the rats, and were carried out by tail vein injection using a 26 gauge butterfly needle. The liposomes were injected over a period of approximately two minutes, and were first diluted with an equal volume of normal saline immediately prior to injection.

[4] = test system: Hepatic Metastases; assay: Blind study detection of hepatic metastases on MR images pre and post contrast by 5 radiologists, Example 7; assay type: in vivo, rat; conditions: for Accuracy Post: includes adjustment for false positives; for #Post (number of metastases detected on Post contrast scans): one rat per dose, 5 radiologists; for Sensitivity Post: percentage of lesions detected on Post contrast scans
From the text: The cell line employed, C5, is a clonal derivative of a rat liver epithelial cell line initially derived from the livers of newborn Fisher rats and subsequently transformed in vitro by transfection with a plasmid containing the T24ras gene driven by the mouse metallothionein promotor. See, Li et al., P.N.A.S., Vol. 35, pp. 344 (1988); Reynolds et al., Oncogene, Vol. 323, pp. 323-330 (1987).
The tumors used in this study were generated by injecting 3 x 10⁵ cells into the superficial lobe of rat livers. Three separate injections of 10⁵ cells were made within an approximate area of 0.5 cm² under direct visualization. The tumors were allowed to grow for 14 to 17 days before imaging followed by sacrifice.
MR imaging was performed on a whole body 1.5 T Siemens Magnetom (Erlangen, West Germany) using a 15 cm Helmholtz receive only coil. Spin echo technique was used with TR/TE of 400 msec/17 msec, 2 mm slices with 4 acquisitions. Images were obtained pre and post contrast in both axial and coronal planes with post contrast images obtained from 5 to 60 minutes post contrast.
Rats were lightly sedated with ether and then fully sedated with I.P. Ketamine/Rompun 0.10 ml/100 g body weight. Contrast injections were performed by tail vein over two minutes with volume approximately 0.5 ml. Doses were as follows: free Gd-DTPA 0.5 and 0.2 mM/kg, 400 nm Gd-DTPA liposomes 0.5, 0.2 and 0.1 mM/Kg and 70 nm Gd-DTPA liposomes 0.5 and 0.2 mM/Kg with one rat injected with each dose.
Pre and post contrast images were separated and, in a blind study, five radiologists experienced in interpreting MR and oncologic imaging were given the MR images to interpret. The MR scans were presented to the radiologists randomly without knowledge of path findings or contrast agent used. The radiologists were instructed to count the number of metastases, plot lesion locations and measure lesion size. The number and sizes of lesions detected were then correlated with the histologic sections and the true number of metastases detected was determined for pre and post contrast scans. The Mann-Whitney test was used to test for statistical significance of results for lesion detection pre and post contrast.
Immediately after imaging, the rats were sacrificed by ether overdose and the livers removed and fixed in 10% formalin. The gross liver specimens were photographed and sectioned in the coronal plant at 2 mm intervals. The number of lesions were counted and size of lesions were measured to correlate with findings on MR images. Microscopic sections were prepared using hematoxylin and eosin stain and studied with light microscopy.

## gadolinium diethylenetriamine pentaacetic acid [Free Gd-DTPA]
[1]; Dose 0.109 mM/Kg
  Liver + Muscle (ratio of liver enhancement to muscle enhancement): -19.3%
  Liver enhancement: 0.0%
  Muscle enhancement (paraspinal muscle): 22.4%
[1]; Dose 0.218 mM/Kg
  Liver + Muscle (ratio of liver enhancement to muscle enhancement): 8.2%
  Liver enhancement: 11.6%
  Muscle enhancement (paraspinal muscle): 3.1%
[1]; two control animals, 0.1 and 0.2 millimoles/kg
  enhancement on scans after injection: enhancement of renal cortex, renal pelvis and urinary bladder, but no appreciable enhancement of liver or vascular structures
[2]
  Relaxivity: 2.79 sec^-1 x mM^-1
[3]
  enhancement on scans (tissue to muscle ratio): no significant enhancement of the liver, kidney and urine
[4]; Dose 0.2 mm/kg
  Accuracy Post: 0±0%
  #Post (number of metastases detected on Post contrast scans): 0±0 isointense
  Sensitivity Post: 0±0%
[4]; Dose 0.5 mm/kg
  Accuracy Post: 40.0±23.5%
  #Post (number of metastases detected on Post contrast scans): 2.80±1.64
  Sensitivity Post: 40.0±23.5%
[4]; post versus pre contrast, Mann-Whitney test
  lesion detection by the five radiologists: statistically significant reduction in lesion detection
